Source: BindingDB's records for PubMed 31931340 (n/a, 2020)

Biological target: PIK3CA
Test: Inhibition of human P13Kalpha

CN(c1nc(-c2cnc(N)nc2)nc(N2CCOCC2)n1)C1CCN(C(=O)c2ccccc2)CC1
IC50: 0.015 µM
